In paper PMC6576746, “Rational discovery of dual-indication multi-target PDE/Kinase inhibitor for precision anti-cancer therapy using structural systems pharmacology” (PLoS Computational Biology, 2019):

How the values were obtained:
Assay in all cases: biochemical
Design in all cases: DiscoverX KinomeScan competition binding assay across human kinases; per cent of control at 10 and 100 uM
MLCK = biological target: T1, MLCK (Homo sapiens, UniProt Q32MK0); conditions: competition binding, % of control; read-out: Percent Control (100 uM Levosimendan)
T1 construct: gene MYLK3
Procedure, shortened: (§1)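 KinomeScan competition binding was run across a human kinase panel at 10 μM and 100 μM levosimendan. Results are %control = (test − positive control)/(negative control − positive control) × 100.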

CDK2 = CDK2 (Homo sapiens, UniProt P24941); conditions: competition binding, % of control; read-out: Percent Control (100 uM Levosimendan)
Procedure, shortened: as §1

NEK3 = NEK3 (Homo sapiens, UniProt P51956); conditions: competition binding, % of control; read-out: Percent Control (100 uM Levosimendan)
Procedure, shortened: as §1

TGFBR1 = TGFBR1 (Homo sapiens, UniProt P36897); conditions: competition binding, % of control
Procedure, shortened: as §1

MST2 = biological target: T2, MST2 (Homo sapiens, UniProt Q13188); conditions: competition binding, % of control; read-out: Percent Control (100 uM Levosimendan)
T2 construct: gene STK3
Procedure, shortened: as §1

ERK5 = biological target: T3, ERK5 (Homo sapiens, UniProt Q13164); conditions: competition binding, % of control; read-out: Percent Control (100 uM Levosimendan)
T3 construct: gene MAPK7
Procedure, shortened: as §1

TLK2 = TLK2 (Homo sapiens, UniProt Q86UE8); conditions: competition binding, % of control; read-out: Percent Control (100 uM Levosimendan)
Procedure, shortened: as §1

EGFR(S752-I759del) = EGFR(S752-I759del) (Homo sapiens, UniProt P00533, DEL752-759); conditions: competition binding, % of control; read-out: Percent Control (100 uM Levosimendan)
Procedure, shortened: as §1

FLT4 = FLT4 (Homo sapiens, UniProt P35916); conditions: competition binding, % of control
Procedure, shortened: as §1

MEK1 = biological target: T4, MEK1 (Homo sapiens, UniProt Q02750); conditions: competition binding, % of control; read-out: Percent Control (100 uM Levosimendan)
T4 construct: gene MAP2K1
Procedure, shortened: as §1

YES = biological target: T5, YES (Homo sapiens, UniProt P07947); conditions: competition binding, % of control
T5 construct: gene YES1
Procedure, shortened: as §1

p38-gamma = biological target: T6, p38-gamma (Homo sapiens, UniProt P53778); conditions: competition binding, % of control
T6 construct: gene MAPK12
Procedure, shortened: as §1

CLK4 = CLK4 (Homo sapiens, UniProt Q9HAZ1); conditions: competition binding, % of control; read-out: Percent Control (100 uM Levosimendan)
Procedure, shortened: as §1

DLK = biological target: T7, DLK (Homo sapiens, UniProt Q12852); conditions: competition binding, % of control; read-out: Percent Control (100 uM Levosimendan)
T7 construct: gene MAP3K12
Procedure, shortened: as §1

[1] = biological target: T8, RSK2(Kin.Dom.2-C-terminal) (Homo sapiens, UniProt P51812); conditions: competition binding, % of control; read-out: Percent Control (100 uM Levosimendan)
T8 construct: gene RPS6KA3; Kin.Dom.2-C-terminal
Procedure, shortened: as §1

CLK2 = CLK2 (Homo sapiens, UniProt P49760); conditions: competition binding, % of control; read-out: Percent Control (100 uM Levosimendan)
Procedure, shortened: as §1

MST4 = biological target: T9, MST4 (Homo sapiens, UniProt Q9P289); conditions: competition binding, % of control; read-out: Percent Control (100 uM Levosimendan)
T9 construct: gene STK26
Procedure, shortened: as §1

MAP3K15 = MAP3K15 (Homo sapiens, UniProt Q6ZN16); conditions: competition binding, % of control; read-out: Percent Control (100 uM Levosimendan)
Procedure, shortened: as §1

[2] = read-out: Percent Control (10 uM Levosimendan)
[3] = read-out: Percent Control (100 uM Levosimendan)

T5 sequence (P07947 whole entry): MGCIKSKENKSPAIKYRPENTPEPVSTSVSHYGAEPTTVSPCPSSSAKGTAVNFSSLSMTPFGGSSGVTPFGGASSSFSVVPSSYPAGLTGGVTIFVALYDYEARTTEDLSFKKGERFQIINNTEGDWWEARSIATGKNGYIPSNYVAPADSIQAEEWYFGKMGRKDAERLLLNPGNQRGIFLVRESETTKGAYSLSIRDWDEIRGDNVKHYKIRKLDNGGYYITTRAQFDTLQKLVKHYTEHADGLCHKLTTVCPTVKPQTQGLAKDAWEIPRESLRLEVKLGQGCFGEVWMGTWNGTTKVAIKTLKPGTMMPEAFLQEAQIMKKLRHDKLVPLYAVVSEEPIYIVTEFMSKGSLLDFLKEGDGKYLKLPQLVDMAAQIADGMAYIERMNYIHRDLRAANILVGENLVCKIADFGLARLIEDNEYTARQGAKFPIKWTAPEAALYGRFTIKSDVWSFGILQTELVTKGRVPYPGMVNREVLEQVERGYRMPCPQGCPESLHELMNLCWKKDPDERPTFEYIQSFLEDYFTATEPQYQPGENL
T6 sequence (P53778 whole entry): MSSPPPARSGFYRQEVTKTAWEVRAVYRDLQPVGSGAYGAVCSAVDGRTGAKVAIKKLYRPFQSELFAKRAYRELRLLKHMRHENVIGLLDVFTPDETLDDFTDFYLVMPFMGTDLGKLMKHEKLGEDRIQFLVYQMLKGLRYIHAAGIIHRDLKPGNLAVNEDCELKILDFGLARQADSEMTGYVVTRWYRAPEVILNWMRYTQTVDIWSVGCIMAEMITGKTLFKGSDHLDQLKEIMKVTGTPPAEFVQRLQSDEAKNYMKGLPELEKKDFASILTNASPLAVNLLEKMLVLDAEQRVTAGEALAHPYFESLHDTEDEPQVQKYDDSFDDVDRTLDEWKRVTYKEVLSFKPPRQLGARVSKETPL
Chain of FLT4 (P35916 whole entry): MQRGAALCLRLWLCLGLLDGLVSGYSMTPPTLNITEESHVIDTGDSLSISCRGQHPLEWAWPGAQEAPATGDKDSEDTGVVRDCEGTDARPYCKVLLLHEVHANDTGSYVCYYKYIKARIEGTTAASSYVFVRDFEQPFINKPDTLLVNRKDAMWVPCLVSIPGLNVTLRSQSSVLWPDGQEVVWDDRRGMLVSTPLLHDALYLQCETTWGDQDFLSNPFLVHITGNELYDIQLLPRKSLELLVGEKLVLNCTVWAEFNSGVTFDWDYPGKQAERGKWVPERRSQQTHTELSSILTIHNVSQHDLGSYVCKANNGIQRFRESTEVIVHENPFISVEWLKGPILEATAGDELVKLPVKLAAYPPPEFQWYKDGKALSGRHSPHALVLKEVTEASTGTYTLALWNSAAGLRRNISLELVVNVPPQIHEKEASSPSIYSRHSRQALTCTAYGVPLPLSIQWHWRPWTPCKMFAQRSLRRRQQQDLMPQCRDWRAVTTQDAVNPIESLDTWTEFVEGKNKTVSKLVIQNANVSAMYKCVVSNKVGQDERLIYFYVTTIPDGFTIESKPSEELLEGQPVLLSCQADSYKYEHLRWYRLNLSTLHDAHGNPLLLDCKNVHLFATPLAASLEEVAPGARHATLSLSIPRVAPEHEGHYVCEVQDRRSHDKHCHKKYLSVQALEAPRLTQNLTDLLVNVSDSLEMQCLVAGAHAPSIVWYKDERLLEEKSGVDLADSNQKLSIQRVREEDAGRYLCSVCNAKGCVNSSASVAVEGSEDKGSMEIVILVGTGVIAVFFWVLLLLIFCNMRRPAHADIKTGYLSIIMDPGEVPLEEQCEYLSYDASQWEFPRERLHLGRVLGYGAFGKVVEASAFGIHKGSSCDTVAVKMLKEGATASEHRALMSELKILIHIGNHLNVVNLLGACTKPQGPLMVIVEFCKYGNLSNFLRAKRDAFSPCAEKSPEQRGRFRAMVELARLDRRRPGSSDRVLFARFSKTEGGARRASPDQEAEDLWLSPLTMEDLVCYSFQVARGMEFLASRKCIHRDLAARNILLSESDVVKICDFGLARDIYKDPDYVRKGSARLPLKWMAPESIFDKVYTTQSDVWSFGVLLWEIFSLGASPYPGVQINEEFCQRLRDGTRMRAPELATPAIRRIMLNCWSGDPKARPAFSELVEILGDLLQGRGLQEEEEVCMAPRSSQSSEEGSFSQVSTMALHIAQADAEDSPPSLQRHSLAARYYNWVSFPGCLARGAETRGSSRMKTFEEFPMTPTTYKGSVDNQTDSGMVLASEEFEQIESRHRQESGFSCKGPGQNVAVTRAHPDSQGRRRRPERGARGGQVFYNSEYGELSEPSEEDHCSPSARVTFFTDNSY
Chain of TGFBR1 (P36897 whole entry): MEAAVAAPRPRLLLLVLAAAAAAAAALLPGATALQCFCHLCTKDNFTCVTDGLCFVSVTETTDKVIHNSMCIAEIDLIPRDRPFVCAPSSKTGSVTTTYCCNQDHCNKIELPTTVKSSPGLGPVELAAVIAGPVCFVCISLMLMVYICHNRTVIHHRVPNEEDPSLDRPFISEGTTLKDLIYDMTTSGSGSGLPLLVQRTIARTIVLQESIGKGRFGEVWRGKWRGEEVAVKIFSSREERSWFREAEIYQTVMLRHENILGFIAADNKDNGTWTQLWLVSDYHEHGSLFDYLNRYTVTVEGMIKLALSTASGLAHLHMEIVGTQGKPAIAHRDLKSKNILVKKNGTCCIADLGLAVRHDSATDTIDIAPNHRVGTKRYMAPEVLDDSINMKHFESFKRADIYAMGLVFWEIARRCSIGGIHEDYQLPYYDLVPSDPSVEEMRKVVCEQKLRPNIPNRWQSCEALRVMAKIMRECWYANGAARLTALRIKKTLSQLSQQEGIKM
Chain of TLK2 (Q86UE8 whole entry): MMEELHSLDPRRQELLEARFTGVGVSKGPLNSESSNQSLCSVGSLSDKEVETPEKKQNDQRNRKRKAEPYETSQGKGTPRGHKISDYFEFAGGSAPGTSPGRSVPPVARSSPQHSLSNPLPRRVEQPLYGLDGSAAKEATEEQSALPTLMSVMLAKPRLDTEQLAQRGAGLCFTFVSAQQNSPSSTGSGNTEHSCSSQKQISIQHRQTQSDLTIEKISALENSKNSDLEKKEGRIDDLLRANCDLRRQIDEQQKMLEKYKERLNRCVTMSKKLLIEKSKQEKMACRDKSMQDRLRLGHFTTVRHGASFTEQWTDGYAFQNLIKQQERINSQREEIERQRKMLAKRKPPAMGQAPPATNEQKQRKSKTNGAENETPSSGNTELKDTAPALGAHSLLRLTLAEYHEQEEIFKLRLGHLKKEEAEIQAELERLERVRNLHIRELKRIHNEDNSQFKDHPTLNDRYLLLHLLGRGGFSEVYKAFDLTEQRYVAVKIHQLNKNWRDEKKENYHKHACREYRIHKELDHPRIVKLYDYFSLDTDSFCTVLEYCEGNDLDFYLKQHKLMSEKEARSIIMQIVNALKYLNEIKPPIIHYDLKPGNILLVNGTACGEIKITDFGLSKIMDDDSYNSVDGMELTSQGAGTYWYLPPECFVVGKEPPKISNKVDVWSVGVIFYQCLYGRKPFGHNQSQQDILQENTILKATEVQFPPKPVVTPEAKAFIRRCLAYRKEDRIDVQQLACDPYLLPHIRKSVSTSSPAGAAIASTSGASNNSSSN
T4 sequence (Q02750 whole entry): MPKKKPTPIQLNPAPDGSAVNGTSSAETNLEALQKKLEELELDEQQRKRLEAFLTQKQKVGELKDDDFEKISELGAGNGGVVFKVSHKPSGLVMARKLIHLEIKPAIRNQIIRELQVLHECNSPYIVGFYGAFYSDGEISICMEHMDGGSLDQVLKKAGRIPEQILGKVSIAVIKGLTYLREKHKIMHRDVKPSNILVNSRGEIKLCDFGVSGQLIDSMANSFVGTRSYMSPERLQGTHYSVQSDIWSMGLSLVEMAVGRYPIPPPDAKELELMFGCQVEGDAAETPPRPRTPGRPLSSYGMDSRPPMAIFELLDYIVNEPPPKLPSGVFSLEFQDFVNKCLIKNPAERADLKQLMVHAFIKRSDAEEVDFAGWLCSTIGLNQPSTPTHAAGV
Chain of CLK2 (P49760 whole entry): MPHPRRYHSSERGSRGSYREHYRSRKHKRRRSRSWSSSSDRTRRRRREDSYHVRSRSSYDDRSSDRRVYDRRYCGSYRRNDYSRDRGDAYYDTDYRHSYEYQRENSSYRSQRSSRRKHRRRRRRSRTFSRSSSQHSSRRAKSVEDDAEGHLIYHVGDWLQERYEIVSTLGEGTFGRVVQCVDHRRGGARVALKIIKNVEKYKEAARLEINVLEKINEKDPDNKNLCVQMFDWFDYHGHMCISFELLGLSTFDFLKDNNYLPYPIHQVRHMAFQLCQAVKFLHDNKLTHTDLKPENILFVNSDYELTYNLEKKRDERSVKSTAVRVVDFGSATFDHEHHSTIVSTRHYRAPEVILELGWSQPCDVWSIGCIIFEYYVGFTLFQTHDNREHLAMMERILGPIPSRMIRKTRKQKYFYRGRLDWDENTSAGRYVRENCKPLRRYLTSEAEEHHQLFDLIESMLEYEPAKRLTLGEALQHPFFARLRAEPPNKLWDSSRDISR
Chain of NEK3 (P51956 whole entry): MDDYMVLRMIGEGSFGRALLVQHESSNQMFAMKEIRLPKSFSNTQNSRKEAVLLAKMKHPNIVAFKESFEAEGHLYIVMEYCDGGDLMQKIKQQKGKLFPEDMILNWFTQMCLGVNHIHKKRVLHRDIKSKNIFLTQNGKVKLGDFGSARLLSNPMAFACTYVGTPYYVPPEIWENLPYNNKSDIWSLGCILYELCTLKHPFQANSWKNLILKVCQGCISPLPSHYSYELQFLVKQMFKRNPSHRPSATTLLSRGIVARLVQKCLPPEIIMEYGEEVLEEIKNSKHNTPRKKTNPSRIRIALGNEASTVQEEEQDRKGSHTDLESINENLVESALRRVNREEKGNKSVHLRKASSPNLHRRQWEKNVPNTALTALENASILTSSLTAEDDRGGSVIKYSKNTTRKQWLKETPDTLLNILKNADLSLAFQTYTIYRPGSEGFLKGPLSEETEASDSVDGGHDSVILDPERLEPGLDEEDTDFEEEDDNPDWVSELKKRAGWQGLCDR

## C[C@@H]1CC(=O)NN=C1c1ccc(NN=C(C#N)C#N)cc1 [levosimendan]
MLCK
  remaining binding at 100 µM: 100%
CDK2
  remaining binding at 100 µM: 97%
NEK3
  remaining binding at 100 µM: 78%
TGFBR1; [2]
  remaining binding at 10 µM: 89%
TGFBR1; [3]
  remaining binding at 100 µM: 48%
MST2
  remaining binding at 100 µM: 100%
ERK5
  remaining binding at 100 µM: 100%
TLK2
  remaining binding at 100 µM: 97%
EGFR(S752-I759del)
  remaining binding at 100 µM: 91%
FLT4; [2]
  remaining binding at 10 µM: 100%
FLT4; [3]
  remaining binding at 100 µM: 49%
MEK1
  remaining binding at 100 µM: 85%
YES; [2]
  remaining binding at 10 µM: 97%
YES; [3]
  remaining binding at 100 µM: 0%
p38-gamma; [2]
  remaining binding at 10 µM: 92%
p38-gamma; [3]
  remaining binding at 100 µM: 52%
CLK4
  remaining binding at 100 µM: 89%
DLK
  remaining binding at 100 µM: 62%
[1]
  remaining binding at 100 µM: 66%
CLK2
  remaining binding at 100 µM: 69%
MST4
  remaining binding at 100 µM: 71%
MAP3K15
  remaining binding at 100 µM: 100%
